In DBAASP:
In brackets after ≈: the same amount, converted by molar mass. Several values for one entry are separate records, joined by “and”; a condition that tells them apart may be missing. Equal entries are not always repeated. Values belong to the compound of their own block, whether it stands above or below them.

Experiments:
Experiment in all cases: ≥ marks a high value that may be exact or a test limit, other limits are often not marked, values filed in µg/mL are converted to µM
[1] = test system: Cladosporium herbarum
[2] = test system: Clavibacter michiganensis subsp. michiganensis DSM 46294
[3] = test system: Botrytis cinerea
[4] = test system: Pectobacterium carotovorum subsp. carotovorum DSM 30168
[5] = test system: Pseudomonas syringae pv. syringae DSM 10604
[6] = test system: Pseudomonas corrugata DSM 7228
[7] = test system: Xanthomonas vesicatoria DSM 50861
[8] = test system: Pseudomonas syringae pv. tomato DC3000
[9] = test system: Alternaria alternata
[10] = test system: Staphylococcus aureus II ATCC 6538P
[11] = test system: Escherichia coli D21
[12] = test system: Pseudomonas aeruginosa ATCC 27853
[13] = test system: Escherichia coli ATCC 25922
[14] = test system: Acinetobacter baumannii ATCC 19606
[15] = test system: Enterobacter cloacae ATCC 49141
[16] = test system: Candida albicans ATCC 10231
[17] = test system: Escherichia coli ATCC 11219
[18] = test system: Klebsiella pneumoniae ATCC 10031
[19] = test system: Pseudomonas aeruginosa ATCC 13388
[20] = test system: Staphylococcus aureus ATCC 6538
[21] = test system: Salmonella enterica subsp. enterica serovar Typhimurium ATCC 14028
[22] = test system: Escherichia coli PFL6
[23] = test system: Vibrio parahaemolyticus CCRC 10806
[24] = test system: Escherichia coli PFH1
[25] = test system: Escherichia coli JM109
[26] = test system: Escherichia coli PFH12
[27] = test system: Bacillus cereus ATCC 11778
[28] = test system: Escherichia coli BL21
[29] = test system: Streptococcus alactolyticus
[30] = test system: Enterococcus faecalis ATCC 29212
[31] = test system: Staphylococcus aureus CCRC 15211
[32] = test system: Pseudomonas aeruginosa
[33] = test system: Staphylococcus aureus CCRC 12652
[34] = test system: Salmonella enterica subsp. enterica serovar Enteritidis ATCC 13076
[35] = test system: Klebsiella pneumoniae CCRC 10694
[36] = test system: Citrobacter koseri
[37] = test system: Staphylococcus xylosus
[38] = test system: Escherichia coli PFH13
[39] = test system: Listeria monocytogenes ATCC 15313
[40] = test system: Salmonella enterica
[41] = test system: Staphylococcus aureus ATCC 25923
[42] = test system: Salmonella typhimurium CCRC 12947
[43] = test system: Streptococcus pneumoniae DSM 11865
[44] = test system: Pseudomonas aeruginosa DSM 1128
[45] = test system: Klebsiella pneumoniae DSM 681
[46] = test system: Escherichia coli DSM 1103
[47] = test system: Staphylococcus aureus 90857
[48] = test system: Pseudomonas aeruginosa E411-17
[49] = test system: Staphylococcus aureus USA 300
[50] = test system: Escherichia coli E423-17
[51] = test system: Klebsiella pneumoniae E406-17
[52] = test system: Acinetobacter baumannii B28-16

MIC [1]: ≥ 73.1 µM | MIC [2]: 29.2 µM (≈ 40 µg/mL) | MIC [3]: ≥ 73.1 µM | MIC [4]: 29.2 µM (≈ 40 µg/mL) | MIC [5]: 3.66 µM (≈ 5 µg/mL) | MIC [6]: 14.6 µM (≈ 20 µg/mL) | MIC [7]: 29.2 µM (≈ 40 µg/mL) | MIC [8]: 7.31 µM (≈ 9.99 µg/mL) | MIC [9]: ≥ 73.1 µM
Structure (SMILES): CC[C@H](C)[C@H](NC(=O)[C@H](C)NC(=O)[C@H](CCCCN)NC(=O)[C@H](CCCCN)NC(=O)[C@H](CC(C)C)NC(=O)[C@H](Cc1ccccc1)NC(=O)[C@H](Cc1cnc[nH]1)NC(=O)[C@H](C)NC(=O)[C@H](CC(C)C)NC(=O)[C@H](C)N)C(=O)N[C@@H](CCCCN)C(=O)N[C@@H](CCCCN)C(N)=O [ALAHFLKKAIKK]

MIC [17]: 10 µM (≈ 13.9 µg/mL) | MIC [18]: 10 µM (≈ 13.9 µg/mL) | MIC [19]: 20 µM (≈ 27.7 µg/mL) | MIC [20]: 10 µM (≈ 13.9 µg/mL) | MIC [21]: 20 µM (≈ 27.7 µg/mL)
Structure (SMILES): CC[C@H](C)[C@H](NC(=O)CN)C(=O)N[C@@H](Cc1cnc[nH]1)C(=O)N[C@@H](CC(=O)O)C(=O)N[C@H](C(=O)N[C@@H](CC(C)C)C(=O)N[C@@H](CCCCN)C(=O)N[C@@H](Cc1ccc(O)cc1)C(=O)NCC(=O)N[C@@H](CCCCN)C(=O)N[C@@H](CCCN=C(N)N)C(=O)N[C@@H](CO)C(N)=O)[C@@H](C)CC [GIHDILKYGKRS]

MIC [22]: 5.28 µM (≈ 7.99 µg/mL) | MIC [24]: 3.74 µM (≈ 5.65 µg/mL) | MIC [25]: 5.28 µM (≈ 7.99 µg/mL) | MIC [26]: 3.74 µM (≈ 5.65 µg/mL) | MIC [27]: 8 µM (≈ 12.1 µg/mL) | MIC [12]: ≥ 32 µM | MIC [28]: 2.64 µM (≈ 4 µg/mL) | MIC [29]: 5.28 µM (≈ 7.99 µg/mL) | MIC [30]: ≥ 32 µM | MIC [31]: 21.1 µM (≈ 32 µg/mL) | MIC [32]: 63.4 µM (≈ 95.9 µg/mL) | MIC [33]: 10.6 µM (≈ 16 µg/mL) | MIC [34]: 4 µM (≈ 6.05 µg/mL) | MIC [35]: 21.1 µM (≈ 32 µg/mL) | MIC [36]: 2.64 µM (≈ 4 µg/mL) | MIC [37]: 0.991 µM (≈ 1.5 µg/mL) | MIC [38]: 3.74 µM (≈ 5.65 µg/mL) | MIC [39]: 4 µM (≈ 6.05 µg/mL) | MIC [40]: 10.6 µM (≈ 16 µg/mL) | MIC [41]: 4 µM (≈ 6.05 µg/mL) | MIC [16]: 4 µM (≈ 6.05 µg/mL) | MIC [42]: 21.1 µM (≈ 32 µg/mL)
Structure (SMILES): CC[C@H](C)[C@H](N)C(=O)N[C@@H](CC(N)=O)C(=O)N[C@@H](CC(C)C)C(=O)N[C@@H](CCCCN)C(=O)N[C@@H](C)C(=O)N[C@H](C(=O)N[C@@H](C)C(=O)N[C@@H](C)C(=O)N[C@@H](CC(C)C)C(=O)N[C@@H](C)C(=O)N[C@@H](CCCCN)C(=O)N[C@@H](CCCCN)C(=O)N[C@@H](CC(C)C)C(=O)N[C@@H](Cc1ccccc1)C(N)=O)[C@@H](C)CC [INLKAIAALAKKLF]
MIC [23]: 10.6 µM (≈ 16 µg/mL)

The next lines start with the compound.

Structure (SMILES): CC(C)C[C@H](NC(=O)[C@H](Cc1cnc[nH]1)NC(=O)[C@H](CCCN=C(N)N)NC(=O)[C@H](CC(C)C)NC(=O)[C@H](CC(C)C)NC(=O)[C@H](Cc1cnc[nH]1)NC(=O)[C@H](CCCN=C(N)N)NC(=O)[C@H](CC(C)C)NC(=O)[C@H](CC(C)C)NC(=O)[C@H](Cc1cnc[nH]1)NC(=O)[C@H](CCCN=C(N)N)NC(=O)[C@H](CC(C)C)NC(=O)[C@H](C)NC(=O)[C@H](CC(=O)O)NC(=O)[C@@H](N)CC(=O)O)C(=O)O [DDALRHLLRHLLRHL]
MIC [10]: ≥ 100 µM | MIC [11]: ≥ 100 µM | MIC [12]: 100 µM (≈ 188 µg/mL) | MIC [13]: 100 µM (≈ 188 µg/mL) | MIC [14]: > 100 µM | MIC [15]: ≥ 100 µM | MIC [16]: 25 µM and > 12.5 µM

Structure (SMILES): CC(C)C[C@H](NC(=O)[C@@H](NC(=O)[C@H](C)NC(=O)[C@H](C)NC(=O)[C@H](CCCN=C(N)N)NC(=O)CNC(=O)CNC(=O)[C@H](CCCN=C(N)N)NC(=O)[C@@H](NC(=O)[C@H](CCCN=C(N)N)NC(=O)[C@H](C)NC(=O)[C@H](Cc1ccc(O)cc1)NC(=O)[C@H](Cc1ccc(O)cc1)NC(=O)[C@H](CCCCN)NC(=O)[C@H](CCC(N)=O)NC(=O)[C@@H](N)CC(C)C)C(C)C)C(C)C)C(=O)N[C@@H](CO)C(=O)O [LQKYYARVRGGRAAVLS]
MIC [43]: ≥ 157 µM | MIC [44]: ≥ 157 µM | MIC [45]: ≥ 157 µM | MIC [41]: > 157 µM | MIC [46]: ≥ 157 µM

Structure (SMILES): CC(C)C[C@H](NC(=O)[C@H](CC(C)C)NC(=O)[C@H](CCCN=C(N)N)NC(=O)[C@H](CCCCN)NC(=O)[C@H](CC(C)C)NC(=O)[C@H](CC(C)C)NC(=O)[C@H](CCCCN)NC(=O)[C@H](CC(C)C)NC(=O)[C@H](CCCN=C(N)N)NC(=O)[C@H](CCCCN)NC(=O)[C@H](CCCCN)NC(=O)[C@@H](N)CCCN=C(N)N)C(N)=O [RKKRLKLLKRLL]
MIC [2]: 1.6 µM (≈ 2.5 µg/mL) | MIC [4]: 6.39 µM (≈ 9.99 µg/mL) | MIC [5]: 0.0639 µM (≈ 0.0999 µg/mL) | MIC [6]: 0.0639 µM (≈ 0.0999 µg/mL) | MIC [7]: 0.0639 µM (≈ 0.0999 µg/mL) | MIC [47]: 6.25 µM (≈ 9.78 µg/mL) | MIC [8]: 6.39 µM (≈ 9.99 µg/mL)

Structure (SMILES): NC(=O)[C@H](CCCN=C(N)N)NC(=O)[C@H](Cc1c[nH]c2ccccc12)NC(=O)[C@H](Cc1c[nH]c2ccccc12)NC(=O)[C@H](CCCN=C(N)N)NC(=O)[C@H](Cc1c[nH]c2ccccc12)NC(=O)[C@H](Cc1c[nH]c2ccccc12)NC(=O)[C@H](CCCN=C(N)N)NC(=O)[C@@H](N)CCCN=C(N)N [RRWWRWWR]
MIC [48]: 8 µM (≈ 11.1 µg/mL) | MIC [49]: 5.66 µM (≈ 7.84 µg/mL) | MIC [50]: 8 µM (≈ 11.1 µg/mL) | MIC [12]: 3.6 µM (≈ 5 µg/mL) | MIC [13]: 5.41 µM (≈ 7.49 µg/mL) | MIC [51]: ≥ 32 µM | MIC [52]: ≥ 32 µM | MIC [41]: 1.8 µM (≈ 2.5 µg/mL)
